{
  "source": "patent US10017741B2",
  "about": "“Compositions and methods for obtaining enriched mesenchymal stem cell cultures” (StemCell Technologies Inc., priority 2013, dated 2018)",
  "format_in_all_cases": "cell-based",
  "key": {"[1]": {"system": "mouse BM-derived cells (MSC colonies)", "assay": "Mouse BM-derived CFU-F assay", "conditions": "14 days", "procedure": "(§1) a. Mouse BM and CB-Derived CFU-F Assay • 1. […] Medium was removed cultures washed with 2 mL PBS. • 4. Cells were fixed by adding 2 mL methanol/well and incubated at room temperature for 5 minutes. • 5. Methanol was removed and plates allowed to air dry for 5 minutes. • 6. To each well, 2 mL Toluidine blue solution was added and incubated for 30 minutes at room temperature. • 7. Toluidine blue solution was removed and wells rinsed with water. • 8. Water was removed and plates allowed to dry. • 9. Colony formation was assessed by enumeration and colony size. Mouse BM-derived cells were isolated as described previously and CFU-F assays setup as described above. […] Cultures were then stained with Toluidine blue and colony formation and appearance assessed. Three independent assays CFU-F assays for both BM- and CB-MSC were setup as in Example 4a and 4b. […] These assays were maintained for 14 days without media change. At the end of day 14, cultures were fixed and stained with toluidine blue and the number of MSC colonies counted."}, "[2]": {"system": "mouse CB-derived cells (MSC colonies)", "assay": "Mouse CB-derived CFU-F assay", "conditions": "14 days", "procedure": "as §1, with “CB-derived” for “BM-derived”"}, "[3]": {"system": "human BM-derived MSCs", "assay": "Adipogenic and osteogenic differentiation of human BM-derived MSCs", "conditions": "human BM-MSC expanded to P2 in 1 μM, 3 weeks differentiation, Oil red O / silver nitrate", "procedure": "c. Expansion of Human BM and Mouse BM and CB-Derived Cells Assay • 1. […] Cultures were allowed to grow for 10-14 days until adherent cells achieved 70 to 80% confluence. Mouse cultures were maintained under normal (5% CO2) or hypoxic conditions (5% CO2/5% O2) at 37 C in a cell culture incubator. Human cultures were maintained under 5% CO2 at 37 C in a humidified cell culture incubator. • 3. Adherent cells were passaged by releasing cultures from flask. Cultures were washed with 5 mL PBS and then 5 mL of 0.25% trypsin solution ([…] catalogue #07901) was added and the flasks incubated for 10 min at 37 C. To each flask, 5 mL complete medium was added to stop trypsin activity. • 4. Released cells were collected into a tube and centrifuged at 300×g for 5 minutes. • 5. Cells were resuspended in 2 mL of medium and counted using a hemocytometer. • 6. […] P1 cultures were incubated until they reached 70 to 80% confluence. • 8. Passaged cultures can be used at any time from P0 to P10 as needed for different applications.\nBM-derived cultures were isolated as described above and expansion assays setup as described above. […] At the end of P2, cell were dissociated by trypsin digestion and replated at 3×10^4 cells/cm^2 in 12-well plates for differentiation assays. Differentiation cultures were maintained for 3 weeks in adipogenic or osteogenic differentiation media. […]"}, "[4]": {"system": "mouse CB-MSC cultures", "assay": "Osteogenic and adipogenic differentiation of mouse CB-MSC"}, "[5]": {"conditions": "BM-MSC, assay 1, 1 uM GW2580, 1.0 × 10^6 cells plated"}, "[6]": {"conditions": "BM-MSC, assay 1, 1 uM GW2580, 2.5 × 10^5 cells plated"}, "[7]": {"conditions": "BM-MSC, assay 1, 1 uM GW2580, 5.0 × 10^5 cells plated"}, "[8]": {"conditions": "BM-MSC, assay 1, 1 uM GW2580, Sum of the three densities"}, "[9]": {"conditions": "BM-MSC, assay 2, 2.5 uM GW2580, 1.0 × 10^6 cells plated"}, "[10]": {"conditions": "BM-MSC, assay 2, 2.5 uM GW2580, 2.5 × 10^5 cells plated"}, "[11]": {"conditions": "BM-MSC, assay 2, 2.5 uM GW2580, 5.0 × 10^5 cells plated"}, "[12]": {"conditions": "BM-MSC, assay 2, 2.5 uM GW2580, Sum of the three densities"}, "[13]": {"conditions": "BM-MSC, assay 3, 2.5 uM GW2580, 1.0 × 10^6 cells plated"}, "[14]": {"conditions": "BM-MSC, assay 3, 2.5 uM GW2580, 2.5 × 10^5 cells plated"}, "[15]": {"conditions": "BM-MSC, assay 3, 2.5 uM GW2580, 5.0 × 10^5 cells plated"}, "[16]": {"conditions": "BM-MSC, assay 3, 2.5 uM GW2580, Sum of the three densities"}, "[17]": {"conditions": "CB-MSC, assay 1, 1 uM GW2580, 1.0 × 10^5 cells plated"}, "[18]": {"conditions": "CB-MSC, assay 1, 1 uM GW2580, 2.5 × 10^5 cells plated"}, "[19]": {"conditions": "CB-MSC, assay 1, 1 uM GW2580, 5.0 × 10^4 cells plated"}, "[20]": {"conditions": "CB-MSC, assay 1, 1 uM GW2580, Sum of the three densities"}, "[21]": {"conditions": "CB-MSC, assay 2, 2.5 uM GW2580, 1.0 × 10^6 cells plated"}, "[22]": {"conditions": "CB-MSC, assay 2, 2.5 uM GW2580, 2.5 × 10^5 cells plated"}, "[23]": {"conditions": "CB-MSC, assay 2, 2.5 uM GW2580, 5.0 × 10^5 cells plated"}, "[24]": {"conditions": "CB-MSC, assay 2, 2.5 uM GW2580, Sum of the three densities"}, "[25]": {"conditions": "CB-MSC, assay 3, 2.5 uM GW2580, 1.0 × 10^6 cells plated"}, "[26]": {"conditions": "CB-MSC, assay 3, 2.5 uM GW2580, 2.5 × 10^5 cells plated"}, "[27]": {"conditions": "CB-MSC, assay 3, 2.5 uM GW2580, 5.0 × 10^5 cells plated"}, "[28]": {"conditions": "CB-MSC, assay 3, 2.5 uM GW2580, Sum of the three densities"}},
  "note": "Entries after “also recorded” stand apart in the source; their conditions may differ.",
  "data": [
    {"compound": "COc1ccc(COc2ccc(Cc3cnc(N)nc3N)cc2OC)cc1", "note": "[GW2580, 5-(3-Methoxy-4-((4-methoxybenzyl)oxy)benzyl)pyrimidine-2,4-diamine]", "values": [
      {"measurement": "overall minimal increase in number of MSC colonies vs control", "setting": "[1]; BM-MSC, 1 or 2.5 uM, three assays", "value": "≥ 20", "unit": "%"},
      {"measurement": "% increase in number of MSC colonies vs control", "setting": "[1]; [5]", "value": 26, "unit": "%"},
      {"measurement": "Number of MSC colonies", "setting": "[1]; [5]", "value": 227},
      {"measurement": "% increase in number of MSC colonies vs control", "setting": "[1]; [6]", "value": 26, "unit": "%"},
      {"measurement": "Number of MSC colonies", "setting": "[1]; [6]", "value": 103},
      {"measurement": "% increase in number of MSC colonies vs control", "setting": "[1]; [7]", "value": 44, "unit": "%"},
      {"measurement": "Number of MSC colonies", "setting": "[1]; [7]", "value": 201},
      {"measurement": "% increase in number of MSC colonies vs control", "setting": "[1]; [8]", "value": 32, "unit": "%"},
      {"measurement": "Number of MSC colonies", "setting": "[1]; [8]", "value": 531},
      {"measurement": "% increase in number of MSC colonies vs control", "setting": "[1]; [9]", "value": 21, "unit": "%"},
      {"measurement": "Number of MSC colonies", "setting": "[1]; [9]", "value": 34},
      {"measurement": "% increase in number of MSC colonies vs control", "setting": "[1]; [10]", "value": 0, "unit": "%"},
      {"measurement": "Number of MSC colonies", "setting": "[1]; [10]", "value": 3},
      {"measurement": "% increase in number of MSC colonies vs control", "setting": "[1]; [11]", "value": 109, "unit": "%"},
      {"measurement": "Number of MSC colonies", "setting": "[1]; [11]", "value": 23},
      {"measurement": "% increase in number of MSC colonies vs control", "setting": "[1]; [12]", "value": 40, "unit": "%"},
      {"measurement": "Number of MSC colonies", "setting": "[1]; [12]", "value": 60},
      {"measurement": "% increase in number of MSC colonies vs control", "setting": "[1]; [13]", "value": 50, "unit": "%"},
      {"measurement": "Number of MSC colonies", "setting": "[1]; [13]", "value": 60},
      {"measurement": "% increase in number of MSC colonies vs control", "setting": "[1]; [14]", "value": 67, "unit": "%"},
      {"measurement": "Number of MSC colonies", "setting": "[1]; [14]", "value": 5},
      {"measurement": "% increase in number of MSC colonies vs control", "setting": "[1]; [15]", "value": 70, "unit": "%"},
      {"measurement": "Number of MSC colonies", "setting": "[1]; [15]", "value": 17},
      {"measurement": "% increase in number of MSC colonies vs control", "setting": "[1]; [16]", "value": 55, "unit": "%"},
      {"measurement": "Number of MSC colonies", "setting": "[1]; [16]", "value": 82},
      {"measurement": "increase in colony number compared to control cultures", "setting": "[1]; BM-derived, 1 μM", "value": "at least 20%"},
      {"measurement": "MSC CFU-F appearance (colony size, macrophages)", "setting": "[1]; BM-derived, 1 μM, Toluidine blue", "value": "bigger in size and have a much reduced number of macrophages; also recorded: larger, enriched MSC CFU-F that are mostly free of macrophages"},
      {"measurement": "overall minimal increase in number of MSC colonies vs control", "setting": "[2]; CB-MSC, 1 or 2.5 uM, three assays", "value": "≥ 20", "unit": "%"},
      {"measurement": "% increase in number of MSC colonies vs control", "setting": "[2]; [17]", "value": 51, "unit": "%"},
      {"measurement": "Number of MSC colonies", "setting": "[2]; [17]", "value": 77},
      {"measurement": "% increase in number of MSC colonies vs control", "setting": "[2]; [18]", "value": 30, "unit": "%"},
      {"measurement": "Number of MSC colonies", "setting": "[2]; [18]", "value": 133},
      {"measurement": "% increase in number of MSC colonies vs control", "setting": "[2]; [19]", "value": 70, "unit": "%"},
      {"measurement": "Number of MSC colonies", "setting": "[2]; [19]", "value": 46},
      {"measurement": "% increase in number of MSC colonies vs control", "setting": "[2]; [20]", "value": 42, "unit": "%"},
      {"measurement": "Number of MSC colonies", "setting": "[2]; [20]", "value": 256},
      {"measurement": "% increase in number of MSC colonies vs control", "setting": "[2]; [21]", "value": 84, "unit": "%"},
      {"measurement": "Number of MSC colonies", "setting": "[2]; [21]", "value": 83},
      {"measurement": "% increase in number of MSC colonies vs control", "setting": "[2]; [22]", "value": 25, "unit": "%"},
      {"measurement": "Number of MSC colonies", "setting": "[2]; [22]", "value": 15},
      {"measurement": "% increase in number of MSC colonies vs control", "setting": "[2]; [23]", "value": 9, "unit": "%"},
      {"measurement": "Number of MSC colonies", "setting": "[2]; [23]", "value": 36},
      {"measurement": "% increase in number of MSC colonies vs control", "setting": "[2]; [24]", "value": 49, "unit": "%"},
      {"measurement": "Number of MSC colonies", "setting": "[2]; [24]", "value": 134},
      {"measurement": "% increase in number of MSC colonies vs control", "setting": "[2]; [25]", "value": 84, "unit": "%"},
      {"measurement": "Number of MSC colonies", "setting": "[2]; [25]", "value": 147},
      {"measurement": "% increase in number of MSC colonies vs control", "setting": "[2]; [26]", "value": 25, "unit": "%"},
      {"measurement": "Number of MSC colonies", "setting": "[2]; [26]", "value": 35},
      {"measurement": "% increase in number of MSC colonies vs control", "setting": "[2]; [27]", "value": 29, "unit": "%"},
      {"measurement": "Number of MSC colonies", "setting": "[2]; [27]", "value": 89},
      {"measurement": "% increase in number of MSC colonies vs control", "setting": "[2]; [28]", "value": 53, "unit": "%"},
      {"measurement": "Number of MSC colonies", "setting": "[2]; [28]", "value": 271},
      {"measurement": "increase in colony number compared to control cultures", "setting": "[2]; CB-derived, 1 μM", "value": "at least 24%"},
      {"measurement": "MSC CFU-F appearance (colony size, macrophages)", "setting": "[2]; CB-derived, 1 μM, Toluidine blue", "value": "bigger in size and have a much reduced number of macrophages; also recorded: larger, enriched MSC CFU-F that are mostly free of macrophages"},
      {"measurement": "adipogenic and osteogenic differentiation vs control-expanded cultures", "setting": "[3]", "value": "differentiated equally well"},
      {"measurement": "adipogenic and osteogenic differentiation (Oil Red O, ALP/mineralization)", "setting": "[4]; CB-MSC, 2.5 uM for 2 passages, plated at 4.0×10^4 cells/cm^2, 14 days", "value": "substantial adipogenic and osteogenic differentiation"},
      {"measurement": "differentiation into osteogenic and adipogenic lineages vs control cultures", "setting": "[4]; mouse CB-MSC exposed to GW2580 during expansion", "value": "stronger and more robust differentiation"}
    ]}
  ]
}
